Data: ChEMBL document CHEMBL1201862, “PubChem BioAssay data set” (2004)
Active and inactive are the calls of the source.

How the values were obtained:
H4 = experiment: Luminescence Cell-Based Dose Response HTS to Identify Activators of 5'UTR Stem-Loop Driven Prion Protein mRNA Translation in H4 Neuroglioblastoma Cells. [Related pubchem assays: 1829 (Project Summary), 1814 (Primary HTS)]; format: functional; details: Homo sapiens
[1] = target: T1, Delta-type opioid receptor (Homo sapiens, UniProt P41143); experiment: DOR agonists, SAR follow-up, image-based (AID 2370); format: functional
[2] = Luminescence Cell-Based Dose Confirmation HTS to Identify Activators of 5'UTR Stem-Loop Driven Alpha-Synuclein mRNA Translation in H4 Neuroglioblastoma Cells. [Related pubchem assays: 1829 (Project Summary), 1814 (Primary HTS)]; format: functional
[3] = target: T2, Kappa-type opioid receptor (Homo sapiens, UniProt P41145); format: functional
[4] = target: T1, Delta-type opioid receptor; experiment: DOR antagonists, SAR follow-up, image-based (AID 2357); format: functional
[5] = Luminescence Cell-Based Dose Response HTS to Identify Activators of Luciferase Translation or Activity in H4 […] Cells. [Related pubchem assays: 1829 (Project Summary), 1814 (Primary HTS)]; format: functional
[6] = target: T2, Kappa-type opioid receptor; format: functional; remark: listed apart in the source
Mu-type opioid receptor [7] = target: T3, Mu-type opioid receptor (Homo sapiens, UniProt P35372); experiment: MOR agonists by imaging, SAR follow-up, image-based (AID 2352); format: functional
[8] = target: T2, Kappa-type opioid receptor; experiment: KOR antagonists by imaging, SAR follow-up, image-based (AID 2348); format: functional
[9] = target: T2, Kappa-type opioid receptor; experiment: KOR agonist analogs, imaging readout, SAR follow-up, image-based (AID 2359); format: functional
[10] = target: T2, Kappa-type opioid receptor; experiment: kappa opioid receptor blockers, cell-based, luminescence, beta-arrestin, SAR follow-up (AID 2285); format: functional
Mu-type opioid receptor [11] = target: T3, Mu-type opioid receptor; experiment: MOR antagonists, SAR follow-up, image-based (AID 2420); format: functional;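 also: compounds added before stimulation of receptor with agonist DAMGO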
Beta-galactosidase = Beta-galactosidase (Escherichia coli, UniProt Q8VNN2); format: functional
BJ [12] = experiment: cytotoxicity toward BJ-TERT fibroblasts, dose response, cell-based, RAS-independent, luminescence (AID 1933); format: functional; details: Homo sapiens
Bcl-2-like protein 10 = Bcl-2-like protein 10 (Homo sapiens, UniProt Q9HD36); experiment: displacers of TR3 peptide from Bcl-B, primary screen, selectivity assay for Bfl-1 inhibitor project, biochemical, fluorescence polarization, FITC-TR3 peptide (AID 748);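 also: fluorescence polarization from a fluorescein-labelled TR3 peptide binding purified Bcl-B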
[13] = cytotoxicity toward DRD oncogenic fibroblasts, dose response, cell-based, non-viral oncogenic, luminescence (AID 1934); format: functional; details: Homo sapiens
[14] = tested on: Streptococcus sp. 'group A'; experiment: growth inhibition of control SK(-) GAS strain, dose response, counter-screen for streptokinase expression inhibitor project, luminescence, kanamycin, BacTiterGlo, confirmation (AID 1900); format: functional, organism-based
Cytochrome P450 3A4 = Cytochrome P450 3A4 (Homo sapiens, UniProt P08684);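 also: CYP3A4 tested as one member of a cytochrome P450 panel screen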
Streptokinase A = target: T4, Streptokinase A (Streptococcus pyogenes serotype M1, UniProt P10520); experiment: S. pyogenes streptokinase expression inhibitors, potency, dose response, plasminogen activation absorbance, OD405 (AID 1914); format: functional, Streptococcus pyogenes M1 GAS;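 also: secreted streptokinase activity via plasminogen activation per viability signal from cell pellet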
T4 sequence (P10520 whole entry): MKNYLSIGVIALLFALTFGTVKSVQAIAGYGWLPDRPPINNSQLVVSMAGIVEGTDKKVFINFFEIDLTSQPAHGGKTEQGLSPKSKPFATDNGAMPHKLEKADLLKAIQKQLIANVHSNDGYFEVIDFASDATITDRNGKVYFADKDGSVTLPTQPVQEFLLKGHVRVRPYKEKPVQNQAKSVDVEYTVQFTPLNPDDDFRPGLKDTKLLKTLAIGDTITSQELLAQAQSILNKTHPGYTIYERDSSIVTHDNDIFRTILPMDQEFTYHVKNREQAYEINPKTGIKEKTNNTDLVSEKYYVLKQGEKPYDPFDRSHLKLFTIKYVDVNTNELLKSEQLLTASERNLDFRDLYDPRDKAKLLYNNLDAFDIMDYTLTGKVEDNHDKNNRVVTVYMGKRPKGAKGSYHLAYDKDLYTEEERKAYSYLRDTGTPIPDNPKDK

[15] = Counterscreen for AddAB inhibitors: absorbance-based bacterial cell-based high throughput dose response assay for inhibitors of bacterial viability. [Related pubchem assays (depositor defined):AID435030, AID449728, AID449731, AID488942, AID488955, AID488956]; format: functional
Streptococcus = experiment: Group A Streptococcus viability loss, dose response, counter-screen for streptokinase expression inhibitor project, luminescence, BacTiterGlo (AID 1915); format: functional, organism-based;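 also: potency for reduction of bacterial viability or growth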
INS1 = experiment: beta cell apoptosis inhibitors, cytokine rescue, dose response, luminescence, retest (AID 449756); format: functional, cell-based; details: Rattus norvegicus;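 also: cell death triggered by IL-1 beta plus TNF-alpha plus IFN-gamma mixture; protective hits raise ATP signal compared with cytokine alone wells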
Exodeoxyribonuclease V = Exodeoxyribonuclease V (Escherichia coli (strain K12), UniProt P04993+P07648+P08394); experiment: E. coli RecBCD inhibitors, dose response, counter-screen for AddAB inhibitor project, absorbance, V66 E. coli, mutant T4 phage (AID 492957); format: functional, cell-based, Escherichia coli str. K-12 substr. MG1655
Cytochrome P450 1A2 = target: T5, Cytochrome P450 1A2 (Homo sapiens, UniProt P05177);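 also: PubChem cytochrome P450 panel assay, CYP1A2 panel member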
T5 sequence (P05177 whole entry): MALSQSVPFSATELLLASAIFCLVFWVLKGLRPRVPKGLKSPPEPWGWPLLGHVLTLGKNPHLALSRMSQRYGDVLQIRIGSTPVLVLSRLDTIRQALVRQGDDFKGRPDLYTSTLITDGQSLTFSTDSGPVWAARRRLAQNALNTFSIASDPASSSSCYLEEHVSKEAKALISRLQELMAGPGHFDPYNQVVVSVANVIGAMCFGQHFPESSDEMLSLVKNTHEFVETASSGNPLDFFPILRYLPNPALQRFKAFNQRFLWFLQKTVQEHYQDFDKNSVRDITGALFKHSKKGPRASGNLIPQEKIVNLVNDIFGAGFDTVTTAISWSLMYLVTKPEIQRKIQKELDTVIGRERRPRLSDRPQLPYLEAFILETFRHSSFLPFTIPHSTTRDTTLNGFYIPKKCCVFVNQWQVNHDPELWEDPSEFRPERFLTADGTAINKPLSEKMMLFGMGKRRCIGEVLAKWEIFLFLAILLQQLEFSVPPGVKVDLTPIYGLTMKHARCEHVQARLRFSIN

BJ [16] = experiment: cells; format: functional, cell-based; details: Homo sapiens
[17] = target: Sphingosine 1-phosphate receptor 2 (Homo sapiens, UniProt O95136); experiment: Dose Response Cell Based Assay for Antagonists of the S1P2 Receptor. [Related pubchem assays: 856, 736 ]; format: functional
Cytochrome P450 2C19 = Cytochrome P450 2C19 (Homo sapiens, UniProt P33261); experiment: Cytochrome panel assay with activity outcomes. Panel member name: p450-cyp2c19 Compounds with AC50 equal or less than 10 uM are considered active; format: functional; details: read-out: AC50
BJ [18] = experiment: cytotoxicity toward BJ-TERT-LT-ST fibroblasts, dose response, cell-based, RAS-independent, luminescence (AID 1935); format: functional; details: Homo sapiens;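 also: BJ fibroblasts immortalized with TERT plus LT and ST oncogenes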
[19] = target: T6, Tyrosine-protein phosphatase non-receptor type 22 (Homo sapiens, UniProt Q9Y2R2); experiment: LYP (PTPN22) phosphatase inhibitor potency, SAR follow-up, biochemical, pCAP fluorogenic substrate, fluorescence, set 3 (AID 449727); format: functional
T6 sequence (Q9Y2R2 whole entry): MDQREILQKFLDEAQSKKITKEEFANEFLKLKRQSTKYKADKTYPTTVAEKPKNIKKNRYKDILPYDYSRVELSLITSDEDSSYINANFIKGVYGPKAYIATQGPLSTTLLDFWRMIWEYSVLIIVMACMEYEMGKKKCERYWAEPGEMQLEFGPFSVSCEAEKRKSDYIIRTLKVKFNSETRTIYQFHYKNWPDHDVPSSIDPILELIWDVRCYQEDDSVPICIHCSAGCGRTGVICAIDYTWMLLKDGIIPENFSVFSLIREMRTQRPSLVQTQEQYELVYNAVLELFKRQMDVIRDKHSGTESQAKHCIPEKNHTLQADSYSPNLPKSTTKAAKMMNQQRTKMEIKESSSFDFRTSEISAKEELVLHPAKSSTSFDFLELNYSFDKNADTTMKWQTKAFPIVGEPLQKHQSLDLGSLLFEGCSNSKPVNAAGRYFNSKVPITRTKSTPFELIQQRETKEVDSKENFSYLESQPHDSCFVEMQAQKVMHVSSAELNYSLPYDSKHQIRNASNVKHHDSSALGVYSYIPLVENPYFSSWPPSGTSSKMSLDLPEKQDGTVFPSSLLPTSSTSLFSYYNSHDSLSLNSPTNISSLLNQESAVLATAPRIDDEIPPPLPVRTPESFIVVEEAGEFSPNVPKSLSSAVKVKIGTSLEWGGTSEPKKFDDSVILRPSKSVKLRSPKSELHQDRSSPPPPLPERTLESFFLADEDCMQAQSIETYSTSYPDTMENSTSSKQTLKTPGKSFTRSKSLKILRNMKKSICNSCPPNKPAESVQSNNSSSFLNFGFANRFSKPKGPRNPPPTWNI

[20] = Luminescence Cell-Based Dose Response HTS to Identify Inhibitors of 5'UTR Stem-Loop Driven Prion Protein mRNA Translation in H4 Neuroglioblastoma Cells. [Related pubchem assays: 1827 (Project Summary), 1813 (Primary HTS)]; format: functional
[21] = target: T7, G-protein coupled receptor 35 (Homo sapiens, UniProt Q9HC97); experiment: GPR35 antagonists blocking zaprinast-driven arrestin recruitment, primary screen, imaging, U2OS, beta-arrestin-GFP, zaprinast agonist (AID 2058); format: functional;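 also: antagonist potency meaning inhibition of agonist-induced arrestin redistribution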
[22] = target: Tyrosine-protein phosphatase non-receptor type 12 (Homo sapiens, UniProt Q05209); experiment: SAR Selectivity Analysis of small molecule inhibitors of PEST using pCAP in a fluorescence assay. [Related pubchem assays (depositor defined):AID1779, AID1784, AID2135]; format: functional
[23] = target: T6, Tyrosine-protein phosphatase non-receptor type 22; experiment: SAR LYP1 Fluorescent Assay using OMFP substrate for In Vitro dose response studies - Set 3. [Related pubchem assays (depositor defined):AID1779, AID1784, AID2140, AID2686]; format: functional
[24] = target: G-protein coupled receptor 55 (Homo sapiens, UniProt Q9Y2T6); experiment: GPR55 antagonists, SAR follow-up, counter-screen for GPR35 antagonist project, imaging, image-based (AID 2397); format: functional
[25] = inhibitors of SNCA 5'UTR-driven reporter translation, confirmation, H4 neuroglioma cells, luminescence (AID 1988); format: functional, cell-based
[26] = inhibitors of firefly luciferase expression or activity, dose response, H4 neuroglioma cells, luminescence (AID 1990); format: functional, cell-based
[27] = target: T8, Tyrosine-protein phosphatase non-receptor type 7 (Homo sapiens, UniProt P35236); experiment: HePTP (PTPN7) phosphatase inhibitor potency, SAR follow-up, biochemical, set 2 (AID 449736); format: functional
T8 sequence (P35236 whole entry): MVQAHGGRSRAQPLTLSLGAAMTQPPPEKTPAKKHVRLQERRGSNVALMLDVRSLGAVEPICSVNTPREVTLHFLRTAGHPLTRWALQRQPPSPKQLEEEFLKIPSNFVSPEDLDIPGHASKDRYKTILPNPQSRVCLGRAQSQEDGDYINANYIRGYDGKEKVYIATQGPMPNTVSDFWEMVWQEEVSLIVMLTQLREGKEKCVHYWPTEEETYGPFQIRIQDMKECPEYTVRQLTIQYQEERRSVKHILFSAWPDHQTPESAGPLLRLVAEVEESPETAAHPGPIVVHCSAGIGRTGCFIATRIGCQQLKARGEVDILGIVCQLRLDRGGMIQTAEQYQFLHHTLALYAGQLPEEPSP

[28] = target: T7, G-protein coupled receptor 35; experiment: SAR Analysis for the identification of Selective Antagonists of ERK1/2 Activity in GPR35-Overexpressing U2OS Cells. [Related pubchem assays: 2079, 2058 ]; format: functional, cell-based
[29] = target: Lysine-specific demethylase 4A (Homo sapiens, UniProt O75164); experiment: JMJD2A histone demethylase inhibitors, dose response, selectivity assay for GASC-1 inhibitor project, biochemical, DELFIA europium, cherry-picked samples (AID 488840)
[30] = target: Ras and Rab interactor 1/Tyrosine-protein kinase ABL1 (Homo sapiens, UniProt P00519+Q13671); format: functional;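 also: biochemical TR-FRET dose-response test measuring inhibition of binding between Rin1 and Abl proteins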

T2 sequence (P41145 whole entry): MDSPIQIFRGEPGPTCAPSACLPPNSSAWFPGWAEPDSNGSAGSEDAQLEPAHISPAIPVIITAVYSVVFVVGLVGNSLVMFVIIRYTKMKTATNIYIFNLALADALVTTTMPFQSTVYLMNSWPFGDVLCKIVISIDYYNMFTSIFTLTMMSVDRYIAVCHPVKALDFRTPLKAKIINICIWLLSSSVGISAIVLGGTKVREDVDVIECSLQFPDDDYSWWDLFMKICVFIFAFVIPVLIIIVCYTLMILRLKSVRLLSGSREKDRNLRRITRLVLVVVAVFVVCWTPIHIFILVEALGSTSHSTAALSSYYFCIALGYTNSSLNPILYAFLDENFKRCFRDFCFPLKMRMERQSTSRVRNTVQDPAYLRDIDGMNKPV
T7 sequence (Q9HC97 whole entry): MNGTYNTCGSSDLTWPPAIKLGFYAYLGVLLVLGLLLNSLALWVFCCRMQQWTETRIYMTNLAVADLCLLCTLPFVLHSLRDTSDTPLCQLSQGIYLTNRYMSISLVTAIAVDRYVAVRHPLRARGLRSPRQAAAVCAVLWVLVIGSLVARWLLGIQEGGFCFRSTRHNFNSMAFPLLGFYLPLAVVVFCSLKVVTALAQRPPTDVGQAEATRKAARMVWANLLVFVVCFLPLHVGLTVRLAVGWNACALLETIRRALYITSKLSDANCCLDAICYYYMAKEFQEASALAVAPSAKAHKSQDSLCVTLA
T1 sequence (P41143 whole entry): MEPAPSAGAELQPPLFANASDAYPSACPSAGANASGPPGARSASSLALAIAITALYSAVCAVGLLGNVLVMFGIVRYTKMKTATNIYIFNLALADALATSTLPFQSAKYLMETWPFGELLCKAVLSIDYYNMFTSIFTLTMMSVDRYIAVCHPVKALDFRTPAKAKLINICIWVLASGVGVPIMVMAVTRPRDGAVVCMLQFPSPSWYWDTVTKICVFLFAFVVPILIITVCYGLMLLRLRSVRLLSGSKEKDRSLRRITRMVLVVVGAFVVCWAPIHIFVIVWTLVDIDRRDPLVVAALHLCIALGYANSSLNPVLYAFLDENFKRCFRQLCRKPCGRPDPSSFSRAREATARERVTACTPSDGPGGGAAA
T3 sequence (P35372 whole entry): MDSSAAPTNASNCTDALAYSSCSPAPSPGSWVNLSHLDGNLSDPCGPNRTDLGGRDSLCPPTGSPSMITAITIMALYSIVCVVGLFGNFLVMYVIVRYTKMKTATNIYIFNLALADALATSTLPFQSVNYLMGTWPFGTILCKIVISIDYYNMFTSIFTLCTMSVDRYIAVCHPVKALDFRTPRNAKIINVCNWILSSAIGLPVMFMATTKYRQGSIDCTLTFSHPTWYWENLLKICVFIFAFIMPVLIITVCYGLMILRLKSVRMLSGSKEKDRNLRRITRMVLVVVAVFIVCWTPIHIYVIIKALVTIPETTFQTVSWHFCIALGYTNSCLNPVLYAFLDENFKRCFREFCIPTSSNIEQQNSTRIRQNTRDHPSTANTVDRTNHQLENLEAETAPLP
Chain of Beta-galactosidase (Q8VNN2 whole entry): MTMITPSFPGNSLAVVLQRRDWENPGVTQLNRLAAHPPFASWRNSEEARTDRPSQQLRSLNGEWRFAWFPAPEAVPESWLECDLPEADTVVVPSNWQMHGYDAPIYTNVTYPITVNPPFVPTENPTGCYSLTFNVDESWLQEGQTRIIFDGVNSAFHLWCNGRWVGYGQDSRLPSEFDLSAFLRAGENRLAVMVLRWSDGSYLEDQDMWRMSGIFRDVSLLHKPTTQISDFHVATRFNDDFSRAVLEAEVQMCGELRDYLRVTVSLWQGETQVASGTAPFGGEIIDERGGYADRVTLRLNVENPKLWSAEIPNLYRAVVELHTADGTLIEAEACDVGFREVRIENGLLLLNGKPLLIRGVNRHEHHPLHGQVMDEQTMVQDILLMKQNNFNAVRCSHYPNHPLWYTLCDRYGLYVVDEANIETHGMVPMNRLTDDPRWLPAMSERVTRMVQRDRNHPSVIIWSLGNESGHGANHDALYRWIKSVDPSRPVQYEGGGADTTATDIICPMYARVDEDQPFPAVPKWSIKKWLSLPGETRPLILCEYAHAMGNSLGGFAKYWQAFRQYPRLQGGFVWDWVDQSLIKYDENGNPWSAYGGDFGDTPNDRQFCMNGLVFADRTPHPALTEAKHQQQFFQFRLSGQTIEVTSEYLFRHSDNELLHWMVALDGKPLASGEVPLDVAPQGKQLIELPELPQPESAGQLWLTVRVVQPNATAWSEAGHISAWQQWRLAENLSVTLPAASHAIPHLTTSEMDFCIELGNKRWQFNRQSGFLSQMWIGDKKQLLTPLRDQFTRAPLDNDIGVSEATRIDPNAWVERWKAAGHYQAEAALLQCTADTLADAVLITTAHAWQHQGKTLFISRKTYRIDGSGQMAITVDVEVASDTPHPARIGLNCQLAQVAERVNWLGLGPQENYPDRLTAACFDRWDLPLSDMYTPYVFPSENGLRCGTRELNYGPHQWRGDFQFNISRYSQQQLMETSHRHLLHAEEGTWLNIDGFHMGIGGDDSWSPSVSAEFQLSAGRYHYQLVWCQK
Chain of G-protein coupled receptor 55 (Q9Y2T6 whole entry): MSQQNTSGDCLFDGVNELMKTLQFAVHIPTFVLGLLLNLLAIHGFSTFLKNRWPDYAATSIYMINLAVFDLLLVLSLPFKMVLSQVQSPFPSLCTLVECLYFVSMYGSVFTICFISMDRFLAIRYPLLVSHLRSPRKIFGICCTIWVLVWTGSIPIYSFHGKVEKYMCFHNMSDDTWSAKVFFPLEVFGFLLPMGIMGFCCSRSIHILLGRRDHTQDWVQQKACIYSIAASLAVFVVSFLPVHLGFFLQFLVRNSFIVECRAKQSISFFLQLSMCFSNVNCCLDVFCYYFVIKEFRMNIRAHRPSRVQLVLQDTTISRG
Chain of Tyrosine-protein phosphatase non-receptor type 12 (Q05209 whole entry): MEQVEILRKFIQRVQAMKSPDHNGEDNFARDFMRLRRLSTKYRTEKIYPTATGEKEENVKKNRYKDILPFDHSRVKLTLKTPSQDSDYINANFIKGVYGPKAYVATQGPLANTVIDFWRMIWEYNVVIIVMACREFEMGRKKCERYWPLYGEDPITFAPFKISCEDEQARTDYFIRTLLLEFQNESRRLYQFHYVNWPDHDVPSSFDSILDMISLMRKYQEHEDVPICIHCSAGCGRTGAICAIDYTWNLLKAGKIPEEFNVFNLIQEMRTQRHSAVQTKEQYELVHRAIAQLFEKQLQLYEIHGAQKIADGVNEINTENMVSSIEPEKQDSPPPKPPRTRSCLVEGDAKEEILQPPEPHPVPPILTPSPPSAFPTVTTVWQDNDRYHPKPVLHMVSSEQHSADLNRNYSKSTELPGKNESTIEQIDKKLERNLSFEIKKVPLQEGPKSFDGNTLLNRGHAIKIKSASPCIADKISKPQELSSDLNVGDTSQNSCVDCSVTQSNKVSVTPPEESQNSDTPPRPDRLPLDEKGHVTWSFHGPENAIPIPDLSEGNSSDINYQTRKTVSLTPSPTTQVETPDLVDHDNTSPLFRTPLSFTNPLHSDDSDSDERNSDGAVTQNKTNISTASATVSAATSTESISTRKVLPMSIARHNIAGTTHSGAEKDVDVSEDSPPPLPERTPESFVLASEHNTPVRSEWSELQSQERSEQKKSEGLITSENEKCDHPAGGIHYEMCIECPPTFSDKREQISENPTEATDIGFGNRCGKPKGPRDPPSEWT
Chain of Cytochrome P450 2C19 (P33261 whole entry): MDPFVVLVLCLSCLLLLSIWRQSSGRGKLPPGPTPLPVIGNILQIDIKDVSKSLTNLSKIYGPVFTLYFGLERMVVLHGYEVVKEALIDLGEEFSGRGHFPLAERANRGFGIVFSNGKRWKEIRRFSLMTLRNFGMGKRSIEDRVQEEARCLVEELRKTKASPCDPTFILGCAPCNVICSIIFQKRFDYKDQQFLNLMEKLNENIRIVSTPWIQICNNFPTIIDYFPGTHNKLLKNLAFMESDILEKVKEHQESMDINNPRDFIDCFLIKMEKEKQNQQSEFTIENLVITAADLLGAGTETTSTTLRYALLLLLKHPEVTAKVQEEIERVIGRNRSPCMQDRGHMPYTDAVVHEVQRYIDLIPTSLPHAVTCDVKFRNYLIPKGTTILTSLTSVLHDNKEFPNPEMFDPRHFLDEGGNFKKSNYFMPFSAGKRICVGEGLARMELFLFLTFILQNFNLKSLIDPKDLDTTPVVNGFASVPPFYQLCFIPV
Chain of Bcl-2-like protein 10 (Q9HD36 whole entry): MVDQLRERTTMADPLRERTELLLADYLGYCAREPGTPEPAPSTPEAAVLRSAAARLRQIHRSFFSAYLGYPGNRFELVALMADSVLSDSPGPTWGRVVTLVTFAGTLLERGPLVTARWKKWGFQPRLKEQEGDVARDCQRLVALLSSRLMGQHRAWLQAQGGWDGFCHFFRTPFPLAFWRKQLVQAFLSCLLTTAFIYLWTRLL
Chain of Cytochrome P450 3A4 (P08684 whole entry): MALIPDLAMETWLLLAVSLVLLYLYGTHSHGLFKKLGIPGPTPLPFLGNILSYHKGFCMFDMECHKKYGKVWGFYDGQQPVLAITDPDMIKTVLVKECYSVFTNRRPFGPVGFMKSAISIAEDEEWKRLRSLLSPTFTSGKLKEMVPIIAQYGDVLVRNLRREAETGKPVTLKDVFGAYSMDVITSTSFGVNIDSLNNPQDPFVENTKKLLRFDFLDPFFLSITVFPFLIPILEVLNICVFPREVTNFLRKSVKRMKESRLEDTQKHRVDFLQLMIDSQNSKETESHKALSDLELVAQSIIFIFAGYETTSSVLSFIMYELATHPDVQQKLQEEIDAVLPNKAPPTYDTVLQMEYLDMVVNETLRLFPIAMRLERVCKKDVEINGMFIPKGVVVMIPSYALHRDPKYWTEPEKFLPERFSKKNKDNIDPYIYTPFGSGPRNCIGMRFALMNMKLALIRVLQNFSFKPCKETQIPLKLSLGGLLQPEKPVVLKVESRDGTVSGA

Cc1ccc(CN2C3CCCC2CC(NC(=O)c2ccc(C)cc2)C3)cc1 (stereo not given)
EC50 (H4): > 120 µM (not active)
EC50 [1]: > 32 µM (inactive)
EC50 [2]: > 120 µM (not active)
IC50 [3]: 0.824 µM
IC50 [4]: > 32 µM (inactive)
EC50 [5]: > 120 µM (not active)
IC50 [6]: 2.62 µM (active)
EC50 (Mu-type opioid receptor [7]): > 32 µM (inactive)
IC50 [8]: > 32 µM (inactive)
EC50 [9]: > 32 µM (inactive)
IC50 [10]: 3.28 µM (active)
IC50 (Mu-type opioid receptor [11]): > 32 µM (inactive)
EC50 (Beta-galactosidase): > 31.5 µM (inactive)

Cc1ccc(-[n+]2c(-c3ccc(Br)cc3)cn3c2CCc2ccc4cccnc4c2-3)cc1
EC50 (BJ [12]): 0.649 µM (inconclusive)
IC50 (Bcl-2-like protein 10): 41.4 µM (active)
EC50 [13]: 3.51 µM (active)
EC50 [14]: 6.51 µM (active)
AC50 (Cytochrome P450 3A4): 4.47 µM (inconclusive)
EC50 (Streptokinase A): 6.5 µM (active)
IC50 [15]: 16.9 µM (inactive)
EC50 (Streptococcus): > 50 µM (not active)
AC50 (INS1): 0.412 µM (active)
IC50 (Exodeoxyribonuclease V): 28.4 µM (inactive)
AC50 (Cytochrome P450 1A2): 25.1 µM (inconclusive)
EC50 (BJ [16]): 1.69 µM (inconclusive)
IC50 [17]: 4.28 µM (active)
AC50 (Cytochrome P450 2C19): 28.2 µM (inconclusive)
EC50 (BJ [18]): 2.98 µM (inconclusive)

O=C(CCCN1C(=O)/C(=C/c2ccc3c(c2)OCO3)SC1=S)Nc1cccc(C(=O)O)c1
IC50 [19]: 62.7 µM (active)
EC50 [20]: 17.5 µM (active)
IC50 [21]: 0.803 µM (active)
IC50 [22]: 37.4 µM (active)
IC50 [23]: > 100 µM (inactive)
IC50 [24]: > 32 µM (inactive)
EC50 [25]: > 120 µM (not active)
EC50 [26]: 10.2 µM (active)
IC50 [27]: 2.47 µM (active)
IC50 [28]: 1.89 µM (active)

CN(C(=O)c1ccc(NC(=O)Cc2ccc(NC(=O)C3CCN(C(=O)C4CC4)CC3)cc2)cc1)C1CC1
AC50 [29]: 17.8 µM (active)
IC50 [30]: 9.39 µM (active)
